# Reference: ChEMBL document CHEMBL1150228, “Synthesis of a novel lysophosphatidylcholine” (J Nat Prod, 2001)
# Molecular target: T1, 3-hydroxy-3-methylglutaryl-coenzyme A reductase (Homo sapiens, UniProt P04035)
# T1 sequence (P04035 whole entry): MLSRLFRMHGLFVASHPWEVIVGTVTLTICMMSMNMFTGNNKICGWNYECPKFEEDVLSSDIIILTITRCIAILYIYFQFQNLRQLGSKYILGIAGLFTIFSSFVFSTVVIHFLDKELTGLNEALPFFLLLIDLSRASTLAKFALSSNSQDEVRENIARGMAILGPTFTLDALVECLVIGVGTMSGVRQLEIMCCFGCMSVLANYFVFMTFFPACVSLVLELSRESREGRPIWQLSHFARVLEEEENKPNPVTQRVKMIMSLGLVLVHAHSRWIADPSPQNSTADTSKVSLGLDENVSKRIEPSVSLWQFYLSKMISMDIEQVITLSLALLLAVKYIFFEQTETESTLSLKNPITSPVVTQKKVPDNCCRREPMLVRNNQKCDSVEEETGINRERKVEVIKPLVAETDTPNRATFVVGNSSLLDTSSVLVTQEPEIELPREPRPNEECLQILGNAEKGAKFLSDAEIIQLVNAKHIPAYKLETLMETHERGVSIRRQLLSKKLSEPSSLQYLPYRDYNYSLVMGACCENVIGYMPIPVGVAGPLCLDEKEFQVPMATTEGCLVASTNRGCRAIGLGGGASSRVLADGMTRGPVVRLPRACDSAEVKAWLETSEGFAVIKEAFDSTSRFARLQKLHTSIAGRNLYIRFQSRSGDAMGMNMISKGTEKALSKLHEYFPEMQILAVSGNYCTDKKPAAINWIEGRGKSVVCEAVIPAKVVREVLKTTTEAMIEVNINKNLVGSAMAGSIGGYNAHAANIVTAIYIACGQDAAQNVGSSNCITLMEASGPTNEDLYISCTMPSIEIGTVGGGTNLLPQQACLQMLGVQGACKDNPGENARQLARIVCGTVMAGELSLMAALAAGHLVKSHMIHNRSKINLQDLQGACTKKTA
# Test: Inhibition of HMG CoA reductase
compound,measurement,value
CCCCCC[C@@H]1C[C@@H]1CCCCCCCCCC(=O)OCC(O)COP(=O)([O-])OCC[N+](C)(C)C (relative stereo) [LYSOPHOSPHATIDYLCHOLINE],IC50,112 µM
